Columns and labels:
[1] = system: outer hair cells (OHC) in the cochlea; assay: Cochlear hair cell loss (cochleogram) after noise trauma; format: in vivo, mice; conditions: 26.4 mg/kg peroral once daily for 14 days after noise trauma; at growing distances from the apex; vs placebo; FIG. 2
Protocol: (§1) Noise application was performed for 3 h under anesthesia, using a broad band noise 4-20 kHz, 115 dB SPL, free-field.
(§2) Post-traumatic (0; 24 h; 48 h or 72 h after noise exposure) initiation of oral administration of 26.4 mg/kg (R)-azasetron besylate or of the related placebo formulation, respectively, was performed once daily. Treatments were continued daily for 14 days. • Treatment (T) group 1 +Placebo (P) group 1: Treatment from d1-d14 • Treatment (T) group 2 +Placebo (P) group 2: Treatment from d2-d15 • Treatment (T) group 3 +Placebo (P) group 3: Treatment from d3-d16 • Treatment (T) group 4 +Placebo (P) group 4: Treatment from d4-d17
(§3) Six animals per group (48 in total) have been perfused via the left hearth chamber with a fixative solution (paraformaldehyde (4%)) on day 15.
(§4) Cochleae and brains were prepared (cutting, staining), as disclosed in Gröschel et al. (2010).

[2] = system: neuronal cells in the ventral cochlear nucleus (VCN); assay: Neuronal cell density in the ventral cochlear nucleus (VCN) after noise trauma; format: in vivo, mice
Protocol: as §1, §2, §3, §4

[3] = system: young adult NMRI mice having undergone an acoustic trauma; assay: Frequency specific ABR thresholds after noise trauma; format: in vivo; conditions: 26.4 mg/kg peroral once daily for 14 days after noise trauma (4-20 kHz, 115 dB SPL, 3 h); compared to placebo; FIG. 1
Protocol: 12 animals per group (young adult Naval Medical Research Institute (NMRI) mice), 96 animals in total.
Frequency specific ABR-thresholds at 4; 8; 12; 16; 20; 24; 28; 32 kHz under anesthesia (Ketamine/Xylazine). At least 3 measurements per frequency were performed.
as §1, §2

[4] = system: neuronal cells in the inferior colliculus (IC); assay: Neuronal cell density in the inferior colliculus (IC) after noise trauma; format: in vivo, mice; conditions: 26.4 mg/kg peroral once daily for 14 days, initiated 0 h, 24 h, 48 h or 72 h after acoustic trauma; compared to placebo; FIG. 5
Protocol: as §1, §2, §3, §4

SMILES	loss of outer hair cells (OHC) in the cochlea [1]	destruction of neuronal cells in the VCN (normalized cell densities per grid) ([2]; 26.4 mg/kg peroral once daily for 14 days, initiated immediately or 24/48/72 h after acoustic trauma, vs placebo, FIGS. 3 and 4)	threshold shift of the auditory brainstem response [3]	destruction of neuronal cells in the IC (normalized cell densities per grid) [4]	loss of neurons in the brainstem ([2]; administration upon the onset of lesions after acoustic trauma, summary in discussion (VCN and IC))
CN1C(=O)COc2c(C(=O)N[C@H]3CN4CCC3CC4)cc(Cl)cc21 [(R)-azasetron besylate]	affects the loss of outer hair cells	reduces the destruction of neuronal cells	does not significantly affect	reduces the destruction of neuronal cells	–
CN1C(=O)COc2c(C(=O)NC3CN4CCC3CC4)cc(Cl)cc21 (centres unmarked) [azasetron, N-(1-azabicyclo[2.2.2]octan-8-yl)-6-chloro-4-methyl-3-oxo-1,4-benzoxazine-8-carboxamide, reference compound]	–	–	–	–	significantly reduce the loss of neurons

Source: US20220265668A1, “TREATMENT AND/OR PREVENTION OF LESIONS IN THE CENTRAL AUDITORY NERVOUS SYSTEM” (SENSORION, priority 2019, published 2022)
